According to patent US20200060276A1, “THIAZOLE COMPOUND AND HERBICIDE” (OAT Agrio Co., Ltd., priority 2017, published 2020):

Columns and labels:
Type in all cases: in vivo
[1] = system: Cyperus microiria; experiment: Test for Herbicidal Effect in Flooding Treatment (#1), CYMIC; conditions: flooding treatment at seeding, dose 2 kg/ha, visual observation on day 21
Protocol: (#1) Test for Herbicidal Effect in Flooding Treatment: Styrol cups each having an opening diameter of 8 cm (about 52 cm^2) were respectively filled with soil (45 ml) which had been passed through a sieve (2 mm). Water (about 115 ml) was mixed with the soil such that the soil was flooded. After the soil stood still for 24 hours, Monochoria vaginalis, Echinochloa crus-galli (L.) P. Beauv. var. formosensis Ohwi, Cyperus difformis (umbrella sedge), and Scirpus juncoides were seeded. Each of the compounds of the present invention was dissolved in acetone, and the obtained product was then diluted with water containing Tween 80®. Each of the resultant chemical solutions was dropped on the entire surface of an associated one of treatment sections, so that each section was treated with 1 ml of the respective chemical solution (a dose of 2 kg/ha). After the treatment, the plants were grown in a glasshouse. On day 21, a survey was conducted on the herbicidal activity by visual observation, and evaluation was made according to the following criteria. 0: Growth inhibition effect is less than 10%. 1: Growth inhibition effect is equal to or greater than 10%, and less than 30%. 2; Growth inhibition effect is equal to or greater than 30%, and less than 50%. 3: Growth inhibition effect equal to or greater than 50%, and less than 70%. 4: Growth inhibition effect is equal to or greater than 70%, and less than 90%. 5: Growth inhibition effect is equal to or greater than 90%, or complete withering is achieved. ECHDG=Echinochloa crus-galli (L.) P. Beauv. var. formosensis Ohwi, MONVA=Monochoria vaginalis, SCIJU=Scirpus juncoides, CYMIC=Cyperus microiria.

[2] = system: Scirpus juncoides; experiment: Test for Herbicidal Effect in Flooding Treatment (#1), SCIJU; conditions: flooding treatment at seeding, dose 2 kg/ha, visual observation on day 21
Summary of the method: (§1)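 Flooded soil in cups was seeded 24 h after flooding, then treated with compound in acetone diluted with Tween 80-containing water, dropped onto the water surface at 2 kg/ha. After growth in a glasshouse, growth inhibition was scored visually on day 21 on a 0 (<10%) to 5 (≥90% or complete withering) scale.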

[3] = system: Echinochloa crus-galli (L.) P. Beauv. var. formosensis Ohwi; experiment: Test for Herbicidal Effect in Flooding Treatment (#2), ECHDG at 2-2.5 leaf stage; conditions: flooding treatment at 2-2.5 leaf stage, dose 0.2 kg/ha, visual observation on day 21
Summary of the method: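 Scoring is a visual 0–5 scale of growth inhibition (0 below 10%, 5 at 90% or more or full withering), taken 21 days after treatment in a glasshouse. Dose was 0.2 kg/ha, applied as acetone/Tween 80 aqueous solution onto flooded soil once seedlings reached the 2–2.5 leaf stage.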

[4] = system: Echinochloa crus-galli (L.) P. Beauv. var. formosensis Ohwi; experiment: Test for Herbicidal Effect in Flooding Treatment (#1), ECHDG; conditions: flooding treatment at seeding, dose 2 kg/ha, visual observation on day 21
Summary of the method: as §1

Compound: COc1cc(CS(=O)(=O)c2ncc(Cl)s2)ccc1C [Compound 1C-68]
- CYMIC #1 herbicidal effect (growth inhibition grade) [1]: 5 (Growth inhibition effect is equal to or greater than 90%, or complete withering is achieved)
- SCIJU #1 herbicidal effect (growth inhibition grade) [2]: 5 (Growth inhibition effect is equal to or greater than 90%, or complete withering is achieved)
- ECHDG (2-2.5L) #2 herbicidal effect (growth inhibition grade) [3]: 4 (Growth inhibition effect is equal to or greater than 70%, and less than 90%)
- ECHDG #1 herbicidal effect (growth inhibition grade) [4]: 5 (Growth inhibition effect is equal to or greater than 90%, or complete withering is achieved)

Compound: COc1ccc(Cl)c(CS(=O)(=O)c2ncc(Cl)s2)c1F [Compound 1C-71]
- CYMIC #1 herbicidal effect (growth inhibition grade) [1]: 5 (Growth inhibition effect is equal to or greater than 90%, or complete withering is achieved)
- SCIJU #1 herbicidal effect (growth inhibition grade) [2]: 5 (Growth inhibition effect is equal to or greater than 90%, or complete withering is achieved)
- ECHDG (2-2.5L) #2 herbicidal effect (growth inhibition grade) [3]: 5 (Growth inhibition effect is equal to or greater than 90%, or complete withering is achieved)
- ECHDG #1 herbicidal effect (growth inhibition grade) [4]: 5 (Growth inhibition effect is equal to or greater than 90%, or complete withering is achieved)

Compound: COc1ccc(F)c(CS(=O)(=O)c2ncc(Cl)s2)c1Cl [Compound 1C-72]
- CYMIC #1 herbicidal effect (growth inhibition grade) [1]: 5 (Growth inhibition effect is equal to or greater than 90%, or complete withering is achieved)
- SCIJU #1 herbicidal effect (growth inhibition grade) [2]: 5 (Growth inhibition effect is equal to or greater than 90%, or complete withering is achieved)
- ECHDG (2-2.5L) #2 herbicidal effect (growth inhibition grade) [3]: 5 (Growth inhibition effect is equal to or greater than 90%, or complete withering is achieved)
- ECHDG #1 herbicidal effect (growth inhibition grade) [4]: 5 (Growth inhibition effect is equal to or greater than 90%, or complete withering is achieved)

Compound: COc1c(F)c(F)cc(CS(=O)(=O)c2ncc(Cl)s2)c1F [Compound 1C-74]
- CYMIC #1 herbicidal effect (growth inhibition grade) [1]: 5 (Growth inhibition effect is equal to or greater than 90%, or complete withering is achieved)
- SCIJU #1 herbicidal effect (growth inhibition grade) [2]: 5 (Growth inhibition effect is equal to or greater than 90%, or complete withering is achieved)
- ECHDG (2-2.5L) #2 herbicidal effect (growth inhibition grade) [3]: 3 (Growth inhibition effect equal to or greater than 50%, and less than 70%)
- ECHDG #1 herbicidal effect (growth inhibition grade) [4]: 5 (Growth inhibition effect is equal to or greater than 90%, or complete withering is achieved)

Compound: CCOc1cc(CS(=O)(=O)c2ncc(Cl)s2)ccc1F [Compound 1C-76]
- CYMIC #1 herbicidal effect (growth inhibition grade) [1]: 5 (Growth inhibition effect is equal to or greater than 90%, or complete withering is achieved)
- SCIJU #1 herbicidal effect (growth inhibition grade) [2]: 5 (Growth inhibition effect is equal to or greater than 90%, or complete withering is achieved)
- ECHDG (2-2.5L) #2 herbicidal effect (growth inhibition grade) [3]: 4 (Growth inhibition effect is equal to or greater than 70%, and less than 90%)
- ECHDG #1 herbicidal effect (growth inhibition grade) [4]: 5 (Growth inhibition effect is equal to or greater than 90%, or complete withering is achieved)

Compound: CCOc1ccc(Cl)c(CS(=O)(=O)c2ncc(Cl)s2)c1 [Compound 1C-80]
- CYMIC #1 herbicidal effect (growth inhibition grade) [1]: 5 (Growth inhibition effect is equal to or greater than 90%, or complete withering is achieved)
- SCIJU #1 herbicidal effect (growth inhibition grade) [2]: 5 (Growth inhibition effect is equal to or greater than 90%, or complete withering is achieved)
- ECHDG (2-2.5L) #2 herbicidal effect (growth inhibition grade) [3]: 5 (Growth inhibition effect is equal to or greater than 90%, or complete withering is achieved)
- ECHDG #1 herbicidal effect (growth inhibition grade) [4]: 5 (Growth inhibition effect is equal to or greater than 90%, or complete withering is achieved)

Compound: O=S(=O)(Cc1cccc(OC(F)F)c1)c1ncc(Cl)s1 [Compound 1C-84]
- CYMIC #1 herbicidal effect (growth inhibition grade) [1]: 5 (Growth inhibition effect is equal to or greater than 90%, or complete withering is achieved)
- SCIJU #1 herbicidal effect (growth inhibition grade) [2]: 5 (Growth inhibition effect is equal to or greater than 90%, or complete withering is achieved)
- ECHDG (2-2.5L) #2 herbicidal effect (growth inhibition grade) [3]: 3 (Growth inhibition effect equal to or greater than 50%, and less than 70%)
- ECHDG #1 herbicidal effect (growth inhibition grade) [4]: 5 (Growth inhibition effect is equal to or greater than 90%, or complete withering is achieved)

Compound: O=S(=O)(Cc1cccc(OC(F)(F)F)c1)c1ncc(Cl)s1 [Compound 1C-85, 5-chloro-2-{[3-(trifluoromethoxy)phenyl][methanesulfonyl]}-1,3-thiazole]
- CYMIC #1 herbicidal effect (growth inhibition grade) [1]: 5 (Growth inhibition effect is equal to or greater than 90%, or complete withering is achieved)
- SCIJU #1 herbicidal effect (growth inhibition grade) [2]: 5 (Growth inhibition effect is equal to or greater than 90%, or complete withering is achieved)
- ECHDG (2-2.5L) #2 herbicidal effect (growth inhibition grade) [3]: 1 (Growth inhibition effect is equal to or greater than 10%, and less than 30%)
- ECHDG #1 herbicidal effect (growth inhibition grade) [4]: 5 (Growth inhibition effect is equal to or greater than 90%, or complete withering is achieved)

Compound: COc1ccc(CS(=O)(=O)c2ncc(Cl)s2)cc1 [Compound 1C-87]
- CYMIC #1 herbicidal effect (growth inhibition grade) [1]: 5 (Growth inhibition effect is equal to or greater than 90%, or complete withering is achieved)
- SCIJU #1 herbicidal effect (growth inhibition grade) [2]: 5 (Growth inhibition effect is equal to or greater than 90%, or complete withering is achieved)
- ECHDG (2-2.5L) #2 herbicidal effect (growth inhibition grade) [3]: 1 (Growth inhibition effect is equal to or greater than 10%, and less than 30%)
- ECHDG #1 herbicidal effect (growth inhibition grade) [4]: 5 (Growth inhibition effect is equal to or greater than 90%, or complete withering is achieved)

Compound: COc1ccc(CS(=O)(=O)c2ncc(Cl)s2)cc1Cl [Compound 1C-89]
- CYMIC #1 herbicidal effect (growth inhibition grade) [1]: 5 (Growth inhibition effect is equal to or greater than 90%, or complete withering is achieved)
- SCIJU #1 herbicidal effect (growth inhibition grade) [2]: 5 (Growth inhibition effect is equal to or greater than 90%, or complete withering is achieved)
- ECHDG (2-2.5L) #2 herbicidal effect (growth inhibition grade) [3]: 3 (Growth inhibition effect equal to or greater than 50%, and less than 70%)
- ECHDG #1 herbicidal effect (growth inhibition grade) [4]: 5 (Growth inhibition effect is equal to or greater than 90%, or complete withering is achieved)

Compound: COc1cc(F)c(CS(=O)(=O)c2ncc(Cl)s2)c(F)c1 [Compound 1C-90]
- CYMIC #1 herbicidal effect (growth inhibition grade) [1]: 5 (Growth inhibition effect is equal to or greater than 90%, or complete withering is achieved)
- SCIJU #1 herbicidal effect (growth inhibition grade) [2]: 5 (Growth inhibition effect is equal to or greater than 90%, or complete withering is achieved)
- ECHDG (2-2.5L) #2 herbicidal effect (growth inhibition grade) [3]: 5 (Growth inhibition effect is equal to or greater than 90%, or complete withering is achieved)
- ECHDG #1 herbicidal effect (growth inhibition grade) [4]: 5 (Growth inhibition effect is equal to or greater than 90%, or complete withering is achieved)

Compound: CCOc1ccc(CS(=O)(=O)c2ncc(Cl)s2)c(Cl)c1 [Compound 1C-92]
- CYMIC #1 herbicidal effect (growth inhibition grade) [1]: 5 (Growth inhibition effect is equal to or greater than 90%, or complete withering is achieved)
- SCIJU #1 herbicidal effect (growth inhibition grade) [2]: 5 (Growth inhibition effect is equal to or greater than 90%, or complete withering is achieved)
- ECHDG (2-2.5L) #2 herbicidal effect (growth inhibition grade) [3]: 5 (Growth inhibition effect is equal to or greater than 90%, or complete withering is achieved)
- ECHDG #1 herbicidal effect (growth inhibition grade) [4]: 5 (Growth inhibition effect is equal to or greater than 90%, or complete withering is achieved)
